# Experimental data taken from ChEMBL document CHEMBL4321855, “Targeting CXCR1/2: The medicinal potential as cancer immunotherapy agents, antagonists research highlights and challenges ahead” (Eur J Med Chem, 2020).
# Assays:
# [1] = target: T1, C-X-C chemokine receptor type 2 (Homo sapiens, UniProt P25025); experiment: Antagonist activity at CXCR2 in human neutrophils assessed as reduction in GROalpha stimulated intracellular calcium mobilisation by FLIPR assay; type: functional, cell-based
# T1 sequence (P25025 whole entry): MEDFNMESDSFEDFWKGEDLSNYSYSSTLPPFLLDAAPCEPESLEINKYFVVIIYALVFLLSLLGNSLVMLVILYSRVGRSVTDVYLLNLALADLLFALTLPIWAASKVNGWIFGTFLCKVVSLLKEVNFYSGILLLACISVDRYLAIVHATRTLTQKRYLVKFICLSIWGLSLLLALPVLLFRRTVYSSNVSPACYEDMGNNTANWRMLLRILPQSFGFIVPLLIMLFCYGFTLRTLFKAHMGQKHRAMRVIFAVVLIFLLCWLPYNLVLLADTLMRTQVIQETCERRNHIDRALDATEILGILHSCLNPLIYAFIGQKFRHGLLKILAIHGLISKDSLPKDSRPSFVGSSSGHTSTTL
# [2] = Oral bioavailability in rat; type: ADME, organism-based; settings: in vivo
# [3] = target: T1, C-X-C chemokine receptor type 2; experiment: Antagonist activity at CXCR2 (unknown origin) expressed in human U2OS cells cp-expressing betaarrestin-2/TEV protease and beta lactamase assessed as effect on beta-arrestin2 recruitment preincubated for 30 mins followed by IL-8 addition and further incubated for 5 hrs subsequently adding CCF4-AM staining and measured after 2 hrs by Tango assay; type: cell-based
# [4] = target: T2, C-X-C chemokine receptor type 2 (Homo sapiens) (UniProt P25025); experiment: Displacement of [125I]-IL-8 from human CXCR2 expressed in CHO cells membrane at 20 uM relative to control; type: cell membranes
# T2 sequence (whole entry): T1 sequence (P25025 whole entry)
# Homo sapiens [5] = organism: Homo sapiens; experiment: Selectivity ratio of IC50 for displacement of [125I]IL-8 from CXCR1 (unknown origin) to IC50 for displacement of [125I]IL-8 from CXCR2 (unknown origin)
# [6] = target: T1, C-X-C chemokine receptor type 2; experiment: Antagonist activity at GFP-tagged CXCR2 (unknown origin) expressed in 293T cells assessed as suppression of IL-8-induced inhibition of forskolin-stimulated cAMP accumulation preincubated for 10 mins followed by IL-8 addition and measured after 10 mins by cAMP assay; type: functional, cell-based
# [7] = target: T1, C-X-C chemokine receptor type 2; experiment: Displacement of [125I]IL-8 from human CXCR2 expressed in CHO cells; type: cell-based
# [8] = target: T1, C-X-C chemokine receptor type 2; experiment: Antagonist activity at CXCR2 (unknown origin) stably expressed in HEK293 cells co-expressing Galpha16 assessed as reduction in IL-8-induced intracellular calcium change incubated for 10 mins by Fluo-4AM dye based fluorescence assay; type: functional, cell-based
# Homo sapiens [9] = organism: Homo sapiens; experiment: Selectivity ratio of IC50 for antagonist activity at CXCR1 (unknown origin) stably expressed in HEK293 cells co-expressing Galpha16 to antagonist activity at CXCR2 (unknown origin) stably expressed in HEK293 cells co-expressing Galpha16; type: cell-based
# [10] = target: T3, C-X-C chemokine receptor type 1 (Homo sapiens, UniProt P25024); experiment: Antagonist activity at CXCR1 (unknown origin) stably expressed in HEK293 cells co-expressing Galpha16 assessed as reduction in IL-8-induced intracellular calcium change incubated for 10 mins by Fluo-4AM dye based fluorescence assay; type: functional, cell-based
# T3 sequence (P25024 whole entry): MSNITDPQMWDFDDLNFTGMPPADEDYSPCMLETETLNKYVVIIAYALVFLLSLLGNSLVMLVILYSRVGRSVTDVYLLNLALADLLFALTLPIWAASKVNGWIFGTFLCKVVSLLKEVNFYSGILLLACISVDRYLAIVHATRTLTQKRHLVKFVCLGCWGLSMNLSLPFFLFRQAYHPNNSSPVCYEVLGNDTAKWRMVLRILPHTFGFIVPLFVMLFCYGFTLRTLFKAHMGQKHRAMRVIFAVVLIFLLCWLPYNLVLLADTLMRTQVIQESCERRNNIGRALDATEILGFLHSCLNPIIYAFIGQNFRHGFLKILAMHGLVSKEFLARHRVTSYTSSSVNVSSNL
# [11] = target: T1, C-X-C chemokine receptor type 2; experiment: Antagonist activity at CXCR2 in human U2OS cells assessed as effect on beta-arrestin2 recruitment by CCF4-AM staining based Tango assay; type: cell-based
# [12] = target: T1, C-X-C chemokine receptor type 2; experiment: Antagonist activity at CXCR2 (unknown origin)
# [13] = target: T3, C-X-C chemokine receptor type 1; experiment: Displacement of [125I]IL-8 from CXCR1 in human neutrophils incubated for 3 hrs by gamma counting method
# [14] = target: T1, C-X-C chemokine receptor type 2; experiment: Displacement of [125I]IL-8 from CXCR2 in human neutrophils incubated for 3 hrs by gamma counting method
# SK-OV-3 = experiment: Antitumor activity against human SKOV3 cells xenografted in athymic Nu/Nu mouse assessed as reduction in tumor volume at 10 mg/kg/day, ip co-treated with sorafenib 30 mg/kg, po relative to sorafenib alone; type: functional; set-up: scale not given: the % may be the effect or the level left
# A375-SM [15] = experiment: Antitumor activity against human A375SM cells xenografted in athymic nude mice assessed as reduction in tumor volume at 100 mg/kg, po for 21 days; type: functional
# A375-SM [16] = experiment: Antitumor activity against human A375SM cells xenografted in athymic nude mice assessed as reduction in blood vessels formation at 100 mg/kg, po for 21 days and measured on day 50 by immunohistochemistry relative to control; type: functional; set-up: scale not given: the % may be the effect or the level left
structure (smiles),measurement,setting,value
Sc1nc(-c2ccccc2Cl)nn1Cc1cccc(Cl)c1,IC50,[1],48 nM
same,bioavailability,[2],61%
CC(=O)c1c(C)oc2c1cc(NS(=O)(=O)c1ccc(C(C)(C)C)cc1)c1ccccc12,IC50,[3],7.6 µM
CS(=O)(=O)c1ccc(C(=O)Nc2ccc(F)cc2)c[n+]1[O-],inhibition,[4],93%
O=C(Nc1ccccc1)Nc1ccc([N+](=O)[O-])cc1O,Ratio IC50,Homo sapiens [5],433
N#Cc1ccc(NC(=O)Nc2ccccc2Br)c(O)c1Br,Ratio IC50,Homo sapiens [5],57
CCSc1nnc2n(-c3ccccc3)c(=O)c3c4c(sc3n12)CCC[C@H]4C,IC50,[6],7.8 µM
CC[C@@H](Nc1c(Nc2ccnc(C(=O)N(C)C)c2O)c(=O)c1=O)c1ccc(C)o1,IC50,[7],2 nM
O=C(c1cccc(Nc2c(NC3C[C@@H]4CC[C@H]3C4)c(=O)c2=O)c1O)N1CCCC1 (stereo not given in full),IC50,[8],48 nM
same,Ratio IC50,Homo sapiens [9],60
same,IC50,[10],2900 nM
CC1(C)CC(=O)C(C(=S)Nc2ccccc2)=C(NCc2ccccc2)C1,IC50,[11],6.3 µM
Cc1ccc([C@H](Nc2c(Nc3cccc(S(=O)(=O)N4CCN(C)CC4)c3O)c(=O)c2=O)[C@H]2CCCS2)o1,IC50,[12],17 nM
CCN(CC)CCCCNc1nc2cc(Cl)c(Cl)cc2nc1-c1cc2ccccc2o1,IC50,[13],230 nM
same,IC50,[14],30 nM
CCN(CC)Nc1c(Nc2cccc(C(=O)N(C)C)c2O)c(=O)c1=O,IC50,[12],0.12 nM
O=C(Nc1ccc([N+](=O)[O-])cc1O)Nc1ccccc1Br,Activity,SK-OV-3,42%
CC[C@@H](Nc1c(Nc2cccc(C(=O)N(C)C)c2O)c(=O)c1=O)c1ccc(C)o1 [NAVARIXIN ANHYDROUS],fold change (FC),A375-SM [15],4.5
same,Activity,A375-SM [16],45%
C[C@@H](NC1=C(C(=O)Nc2ccc(Cl)c(C(F)(F)F)c2)C(=O)CC(C)(C)C1)c1ccccc1,IC50,[3],2.5 µM
